In PubChem BioAssay (NCI):
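Five compound concentrations were applied to cells in 96-well plates for 48 hours; endpoints were derived by simple linear interpolation of the resulting dose-response curve. TGI marks complete inhibition of growth.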

Tests used:
Assay in all cases: NCI tumour cell line growth inhibition, 48 h
MOLT-4 leukemia = test system: MOLT-4 leukemia
HL-60(TB) leukemia = test system: HL-60(TB) leukemia
CCRF-CEM leukemia = test system: CCRF-CEM leukemia
HOP-92 NSCLC = test system: HOP-92 NSCLC
SN12C renal = test system: SN12C renal
MALME-3M melanoma = test system: MALME-3M melanoma
MDA-MB-435 = test system: MDA-MB-435
HCT-15 colon = test system: HCT-15 colon
IGROV1 ovarian = test system: IGROV1 ovarian
HCT-116 colon = test system: HCT-116 colon
HOP-62 NSCLC = test system: HOP-62 NSCLC
SK-MEL-5 melanoma = test system: SK-MEL-5 melanoma
EKVX NSCLC = test system: EKVX NSCLC
SF-268 CNS = test system: SF-268 CNS
A549 NSCLC = test system: A549 NSCLC
OVCAR-5 ovarian = test system: OVCAR-5 ovarian
PC-3 prostate = test system: PC-3 prostate
KM12 colon = test system: KM12 colon
NCI-H522 lung = test system: NCI-H522 lung
786-0 renal = test system: 786-0 renal
SW-620 colon = test system: SW-620 colon
T-47D breast = test system: T-47D breast
SK-OV-3 ovarian = test system: SK-OV-3 ovarian
BT-549 breast = test system: BT-549 breast
NCI-H460 lung = test system: NCI-H460 lung
UACC-257 melanoma = test system: UACC-257 melanoma
SNB-19 CNS = test system: SNB-19 CNS
TK-10 renal = test system: TK-10 renal
HCC-2998 colon = test system: HCC-2998 colon
RPMI-8226 leukemia = test system: RPMI-8226 leukemia
M14 melanoma = test system: M14 melanoma
SNB-75 CNS = test system: SNB-75 CNS
DU-145 prostate = test system: DU-145 prostate
NCI-H23 lung = test system: NCI-H23 lung
OVCAR-8 ovarian = test system: OVCAR-8 ovarian
SF-539 CNS = test system: SF-539 CNS
SF-295 CNS = test system: SF-295 CNS
OVCAR-4 ovarian = test system: OVCAR-4 ovarian
MCF7 breast = test system: MCF7 breast
RXF 393 renal = test system: RXF 393 renal
UO-31 renal = test system: UO-31 renal
OVCAR-3 ovarian = test system: OVCAR-3 ovarian
HS 578T breast = test system: HS 578T breast
SK-MEL-2 melanoma = test system: SK-MEL-2 melanoma
A498 renal = test system: A498 renal
NCI/ADR-RES ovarian = test system: NCI/ADR-RES ovarian
K-562 leukemia = test system: K-562 leukemia
CAKI-1 renal = test system: CAKI-1 renal
COLO 205 colon = test system: COLO 205 colon
ACHN renal = test system: ACHN renal
MDA-MB-231 breast = test system: MDA-MB-231 breast
HT29 colon = test system: HT29 colon
LOX IMVI melanoma = test system: LOX IMVI melanoma
SR leukemia = test system: SR leukemia
NCI-H226 lung = test system: NCI-H226 lung
SK-MEL-28 melanoma = test system: SK-MEL-28 melanoma
UACC-62 melanoma = test system: UACC-62 melanoma
U251 CNS = test system: U251 CNS

## O=c1oc(-c2ccc(O)cc2)cc2cc(O)ccc12
MOLT-4 leukemia
  TGI: 69.2 µM
HL-60(TB) leukemia
  TGI: 48.6 µM
CCRF-CEM leukemia
  TGI: > 100 µM
HOP-92 NSCLC
  TGI: 96.2 µM
SN12C renal
  TGI: 65.1 µM
MALME-3M melanoma
  TGI: 72.3 µM
MDA-MB-435
  TGI: 78.9 µM
HCT-15 colon
  TGI: > 100 µM
IGROV1 ovarian
  TGI: > 100 µM
HCT-116 colon
  TGI: 39 µM
HOP-62 NSCLC
  TGI: > 100 µM
SK-MEL-5 melanoma
  TGI: 30.2 µM
EKVX NSCLC
  TGI: > 100 µM
SF-268 CNS
  TGI: 97.6 µM
A549 NSCLC
  TGI: > 100 µM
OVCAR-5 ovarian
  TGI: > 100 µM
PC-3 prostate
  TGI: 94 µM
KM12 colon
  TGI: 68 µM
NCI-H522 lung
  TGI: > 100 µM
786-0 renal
  TGI: > 100 µM
SW-620 colon
  TGI: 87.8 µM
T-47D breast
  TGI: 49 µM
SK-OV-3 ovarian
  TGI: 74.9 µM
BT-549 breast
  TGI: 62.1 µM
NCI-H460 lung
  TGI: 58.2 µM
UACC-257 melanoma
  TGI: > 100 µM
SNB-19 CNS
  TGI: 93.6 µM
TK-10 renal
  TGI: > 100 µM
HCC-2998 colon
  TGI: 65.9 µM
RPMI-8226 leukemia
  TGI: > 100 µM
M14 melanoma
  TGI: 55.5 µM
SNB-75 CNS
  TGI: > 100 µM
DU-145 prostate
  TGI: > 100 µM
NCI-H23 lung
  TGI: 57.6 µM
OVCAR-8 ovarian
  TGI: > 100 µM
SF-539 CNS
  TGI: > 100 µM
SF-295 CNS
  TGI: > 100 µM
OVCAR-4 ovarian
  TGI: > 100 µM
MCF7 breast
  TGI: 52.9 µM
RXF 393 renal
  TGI: 54.4 µM
UO-31 renal
  TGI: 81.3 µM
OVCAR-3 ovarian
  TGI: > 100 µM
HS 578T breast
  TGI: 64 µM
SK-MEL-2 melanoma
  TGI: > 100 µM
A498 renal
  TGI: 51.7 µM
NCI/ADR-RES ovarian
  TGI: 47.9 µM
K-562 leukemia
  TGI: 39.8 µM
CAKI-1 renal
  TGI: > 100 µM
COLO 205 colon
  TGI: 50.5 µM
ACHN renal
  TGI: > 100 µM

## Cn1c(=Nc2ccc(Cl)cc2)sc2ccccc21
MOLT-4 leukemia
  TGI: > 100 µM
HL-60(TB) leukemia
  TGI: > 100 µM
CCRF-CEM leukemia
  TGI: > 100 µM
HOP-92 NSCLC
  TGI: 85.7 µM
SN12C renal
  TGI: > 100 µM
MALME-3M melanoma
  TGI: > 100 µM
MDA-MB-435
  TGI: > 100 µM
HCT-15 colon
  TGI: 65.7 µM
IGROV1 ovarian
  TGI: > 100 µM
HCT-116 colon
  TGI: > 100 µM
HOP-62 NSCLC
  TGI: > 100 µM
SK-MEL-5 melanoma
  TGI: > 100 µM
MDA-MB-231 breast
  TGI: > 100 µM
EKVX NSCLC
  TGI: > 100 µM
SF-268 CNS
  TGI: > 100 µM
A549 NSCLC
  TGI: > 100 µM
OVCAR-5 ovarian
  TGI: > 100 µM
HT29 colon
  TGI: > 100 µM
PC-3 prostate
  TGI: > 100 µM
KM12 colon
  TGI: > 100 µM
NCI-H522 lung
  TGI: 35 µM
786-0 renal
  TGI: > 100 µM
SW-620 colon
  TGI: > 100 µM
T-47D breast
  TGI: > 100 µM
SK-OV-3 ovarian
  TGI: > 100 µM
NCI-H460 lung
  TGI: > 100 µM
LOX IMVI melanoma
  TGI: > 100 µM
UACC-257 melanoma
  TGI: > 100 µM
SNB-19 CNS
  TGI: > 100 µM
TK-10 renal
  TGI: 98.1 µM
HCC-2998 colon
  TGI: 68.3 µM
RPMI-8226 leukemia
  TGI: > 100 µM
SR leukemia
  TGI: > 100 µM
SNB-75 CNS
  TGI: > 100 µM
DU-145 prostate
  TGI: > 100 µM
NCI-H23 lung
  TGI: > 100 µM
NCI-H226 lung
  TGI: > 100 µM
OVCAR-8 ovarian
  TGI: > 100 µM
SF-539 CNS
  TGI: > 100 µM
SF-295 CNS
  TGI: > 100 µM
OVCAR-4 ovarian
  TGI: > 100 µM
RXF 393 renal
  TGI: > 100 µM
UO-31 renal
  TGI: > 100 µM
HS 578T breast
  TGI: > 100 µM
SK-MEL-2 melanoma
  TGI: > 100 µM
A498 renal
  TGI: > 100 µM
NCI/ADR-RES ovarian
  TGI: > 100 µM
K-562 leukemia
  TGI: > 100 µM
CAKI-1 renal
  TGI: > 100 µM
SK-MEL-28 melanoma
  TGI: > 100 µM
COLO 205 colon
  TGI: 81.3 µM
UACC-62 melanoma
  TGI: > 100 µM
ACHN renal
  TGI: > 100 µM
U251 CNS
  TGI: > 100 µM
